Patent publication US20230035586A1, “Salts of R-ketorolac” (Revere Pharmaceuticals, Inc., priority 2019, published 2023)

How the values were obtained:
[1] = Dynamic Vapor Sorption (DVS) moisture sorption/desorption; type: physicochemical; conditions: for weight gain from 5-75% RH / weight gain from 5-75% RH, moles of H2O / weight gain above 75% RH / weight gain above 75% RH, moles of H2O: DVS sorption; for weight gain above 75% RH / weight gain above 75% RH, moles of H2O: above 75% RH (up to 95% RH); for form change after DVS, based on XRPD: XRPD of post-DVS solids
Experimental: DVS analysis (FIG. 5) was conducted by first equilibrating at ambient RH, and then dropping to 5% RH. It was then increased to 95% RH and cycled back to 5% RH. The sample was held at 5% RH until XRPD analysis. Upon equilibration from ambient RH (-48%) to 5% RH, the sample loses 0.4 wt %, equivalent to ˜0.1 moles of H2O. From 5-75% RH, the material undergoes a 1.2 wt % gain (˜0.25 moles of H2O). Above 75% RH, the material gains ˜12 wt % (˜3 moles of H2O).
The crystalline salt of R-ketorolac and meglumine was analyzed by DVS (FIG. 10). […] Upon equilibration from ambient RH (˜50%) to 5% RH, the sample loses 0.1 wt %, equivalent to <0.1 mole of H2O. From 5-75% RH, the material undergoes a 0.9 wt % gain (˜0.25 moles of H2O). Above 75% RH, the material gains ˜37 wt % (>12 moles of H2O). Upon desorption to 5% RH, which occurs with hysteresis, the sample retains ˜9.6 wt % (˜2.7 moles of H2O).
Moisture sorption/desorption data were collected on a VTI SGA-100 Vapor Sorption Analyzer. NaCl and PVP were used as calibration standards. Samples were not dried prior to analysis. Sorption and desorption data were collected over a range from 5% to 95% RH at 10% RH increments under a nitrogen purge. The equilibrium criterion used for analysis was less than 0.0100% weight change in 5 minutes with a maximum equilibration time of 3 hours. Data were not corrected for the initial moisture content of the samples.

[2] = in vivo; cited from earlier work

weight retained upon desorption to 5% RH ([1]; DVS desorption to 5% RH) [wt %]	weight retained upon desorption to 5% RH, moles of H2O ([1]; DVS desorption to 5% RH)	hygroscopicity above 75% RH ([1]; DVS, above 75% RH)	hygroscopicity below 75% RH ([1]; DVS, below 75% RH)	SMILES	weight gain from 5-75% RH [1] [wt %]	weight gain from 5-75% RH, moles of H2O [1]	weight gain above 75% RH [1] [wt %]	weight gain above 75% RH, moles of H2O [1]	weight loss upon equilibration from ambient RH to 5% RH ([1]; DVS) [wt %]	weight loss upon equilibration from ambient RH to 5% RH, equivalent moles of H2O ([1]; DVS)	form change after DVS, based on XRPD [1]	moisture after desorption to 5% RH (in words) ([1]; DVS desorption to 5% RH, small hysteresis)	tolerability in rat studies [2]
~9.6	~2.7 moles of H2O	highly hygroscopic	limited hygroscopicity	CNCC(O)C(O)C(O)C(O)CO.O=C(c1ccccc1)c1ccc2n1CCC2C(=O)O (stereo not drawn) [R-ketorolac meglumine crystalline salt, R-ketorolac meglumine salt]	0.9	~0.25 moles of H2O	~37	> 12 moles of H2O	0.1	< 0.1 moles of H2O	form change is not observed		
				NC(CO)(CO)CO.O=C(c1ccccc1)c1ccc2n1CC[C@H]2C(=O)O [R-ketorolac tromethamine salt]	1.2	~0.25 moles of H2O	~12	~3 moles of H2O	0.4	~0.1 moles of H2O	form change is not observed	all the gained moisture is lost	
				O=C(c1ccccc1)c1ccc2n1CC[C@H]2C(=O)O [R-ketorolac]									much better tolerated than S-ketorolac
				O=C(c1ccccc1)c1ccc2n1CC[C@@H]2C(=O)O [S-ketorolac]									severe dose limiting toxicities
